From the supplement of paper PMC10307832

How the values were obtained:
Assay in all cases: relative viability (nuclei count vs DMSO), 5 days (fraction); higher = more cells survive
BAM7 + Alpelisib = compound: CCOC1=CC=CC=C1N=NC2=C(NN(C2=O)C3=NC(=CS3)C4=CC=CC=C4)C [BAM7] + Cc1nc(NC(=O)N2CCC[C@H]2C(N)=O)sc1-c1ccnc(C(C)(C)C(F)(F)F)c1 [Alpelisib] (partner 2 µM)
Summary of the method: (§1)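 The day after seeding in 1536-well plates, lung cancer cell lines were treated by pin tool with a single drug, or with a fixed anchor-drug dose together with five library-drug doses (not always all listed) in √10 steps. After 5 days, a combined fix-and-stain solution (final 0.05% Triton X-100, 1% formaldehyde, 1 ug/ml Hoechst) was added. Nuclei counted on 4× images gave relative viability as treated counts over vehicle counts, reported as the median of duplicate plates.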

BAM7 + Dasatinib = compound: CCOC1=CC=CC=C1N=NC2=C(NN(C2=O)C3=NC(=CS3)C4=CC=CC=C4)C [BAM7] + Cc1nc(Nc2ncc(C(=O)Nc3c(C)cccc3Cl)s2)cc(N2CCN(CCO)CC2)n1 [Dasatinib] (partner 0.075 µM)
Summary of the method: as §1

[1] = compound: CCn1c(-c2nonc2N)nc2c(C#CC(C)(C)O)ncc(OC[C@H]3CCCNC3)c21 + C[C@@H](Oc1cc(-c2cnn(C3CCNCC3)c2)cnc1N)c1c(Cl)ccc(F)c1Cl [Crizotinib] (partner 1 µM)
Summary of the method: as §1

[2] = compound: CCn1c(-c2nonc2N)nc2c(C#CC(C)(C)O)ncc(OC[C@H]3CCCNC3)c21 + COc1cc2c(Oc3ccc(NC(=O)C4(C(=O)Nc5ccc(F)cc5)CC4)cc3F)ccnc2cc1OCCCN1CCOCC1 [Foretinib] (partner 0.25 µM)
Summary of the method: as §1

Row | Cell Line | relative viability (BAM7 + Alpelisib; first compound 0.5 µM) | relative viability (BAM7 + Alpelisib; first compound 5 µM) | relative viability (BAM7 + Alpelisib; first compound 15.81 µM) | relative viability (BAM7 + Alpelisib; first compound 50 µM) | relative viability (BAM7 + Dasatinib; first compound 0.5 µM) | relative viability (BAM7 + Dasatinib; first compound 5 µM) | relative viability (BAM7 + Dasatinib; first compound 15.81 µM) | relative viability (BAM7 + Dasatinib; first compound 50 µM) | relative viability ([1]; first compound 0.01 µM) | relative viability ([1]; first compound 0.03162 µM) | relative viability ([1]; first compound 0.1 µM) | relative viability ([1]; first compound 0.3162 µM) | relative viability ([1]; first compound 1 µM) | relative viability ([2]; first compound 0.01 µM) | relative viability ([2]; first compound 0.03162 µM) | relative viability ([2]; first compound 0.1 µM) | relative viability ([2]; first compound 0.3162 µM) | relative viability ([2]; first compound 1 µM)
1 | NCI-H322M | 0.859 | 0.816 | 0.803 | 0.801 | 0.271 | 0.287 | 0.287 | 0.281 | 0.969 | 0.981 | 0.9 | 0.811 | 0.914 | 0.823 | 0.881 | 0.879 | 0.816 | 0.911
2 | NCI-H358 | 0.953 | 0.837 | 0.859 | 0.85 | 0.202 | 0.217 | 0.197 | 0.254 | 0.485 | 0.604 | 0.51 | 0.669 | 0.611 | 0.646 | 0.977 | 0.657 | 0.73 | 0.663
3 | NCI-H441 | 0.809 | 0.932 | 0.793 | 0.682 | 0.607 | 0.583 | 0.71 | 0.724 | 0.676 | 0.621 | 0.708 | 0.586 | 0.728 | 1.08 | 0.967 | 0.836 | 1.16 | 0.875
4 | NCI-H460 | 0.514 | 0.468 | 0.473 | 0.403 | 0.51 | 0.622 | 0.443 | 0.691 | 0.895 | 1.07 | 0.814 | 0.786 | 0.884 | 0.949 | 1.11 | 0.979 | 0.978 | 1.11
5 | NCI-H520 | 1.03 | 1.01 | 0.947 | 0.865 | 0.184 | 0.171 | 0.207 | 0.245 | 0.732 | 1.02 | 0.616 | 0.644 | 0.452 | 0.743 | 0.902 | 0.704 | 0.524 | 0.392
6 | NCI-H596 | 0.461 | 0.463 | 0.425 | 0.492 | 0.621 | 0.644 | 0.578 | 0.632 | 0.834 | 1.08 | 0.996 | 0.915 | 0.948 | 0.895 | 1 | 0.744 | 0.84 | 0.639
7 | NCI-H647 | 1.27 | 1.32 | 1.05 | 1.17 | 0.175 | 0.193 | 0.203 | 0.248 | 1.04 | 1.31 | 1.11 | 1.07 | 0.92 | 1.26 | 1.1 | 1.14 | 1.16 | 1.22
8 | NCI-H650 | 1.03 | 1.33 | 1.04 | 1.08 | 0.422 | 0.49 | 0.477 | 0.517 | 0.561 | 0.697 | 0.683 | 0.68 | 0.666 | 1.01 | 0.979 | 0.993 | 1 | 1.13
